{"source": "patent US5801149A", "about": "“Inhibition of signal transduction molecules” (Joslin D-abetes Center, Inc., priority 1995, dated 1998)", "key": {"SH2 domain of Src": {"target": "SH2 domain of Src (Homo sapiens, UniProt P12931)", "sequence (P12931 151-248 limits assumed)": "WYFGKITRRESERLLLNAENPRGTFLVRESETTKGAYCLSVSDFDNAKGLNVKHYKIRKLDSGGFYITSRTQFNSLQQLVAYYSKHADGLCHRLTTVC", "text": "(§1) In these experiments, one or both hydrogen atoms were replaced on Pmp at the carbon position between the phenyl ring and the phosphonate."}, "Rat PTPase 1B": {"target": "T1, Rat PTPase 1B (Rattus norvegicus, UniProt P20417)", "T1 construct": "cloning the full-length cDNA into the bacterial expression vector, PKK233-2; made in house; host or cells: bacteria (vector PKK233-2)", "T1 sequence (P20417 1-432)": "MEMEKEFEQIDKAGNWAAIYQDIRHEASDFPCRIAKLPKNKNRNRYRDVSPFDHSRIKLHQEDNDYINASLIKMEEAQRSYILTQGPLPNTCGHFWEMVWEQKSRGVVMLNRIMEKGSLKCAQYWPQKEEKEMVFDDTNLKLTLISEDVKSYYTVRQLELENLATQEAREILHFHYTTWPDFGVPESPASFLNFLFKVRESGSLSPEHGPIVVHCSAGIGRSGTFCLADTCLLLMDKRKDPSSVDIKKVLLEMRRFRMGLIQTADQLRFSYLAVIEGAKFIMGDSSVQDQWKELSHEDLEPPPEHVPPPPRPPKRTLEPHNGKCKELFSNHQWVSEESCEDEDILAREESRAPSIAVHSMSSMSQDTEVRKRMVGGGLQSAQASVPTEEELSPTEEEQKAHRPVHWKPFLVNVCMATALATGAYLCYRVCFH", "experiment": "PTPase 1B peptide dephosphorylation (Km) and inhibition (Ki)", "assay_type": "biochemical", "experimental": "The phosphopeptides were used as substrates of PTPase 1B, a single catalytic domain PTPase with a […] tissue distribution (Hunter et al., 1989, cell 58:1013). Rat PTPase 1B (Guan et al., 1990, Proc. Natl., Acad. Sci. USA 87:1501) was obtained by PCR and cloning the full-length cDNA into the bacterial expression vector, PKK233-2.\nSequence specificity for peptide dephosphorylation was observed, with apparent Km values ranging from <2 μM for the phospho-middle t sequence to >2 mM for pTyr itself (Table 3).\nSeveral phosphono peptides were tested for the ability to inhibit PTPase 1B activity and KI values determined by methods known to those skilled in the art."}, "[1]": {"experiment": "Amino acid side chain pK titration", "assay_type": "physicochemical", "conditions": "0.2M solution titrated with 6N HCl"}, "[2]": {"target": "T2, association between pp60^c-grc /mT and PI 3-kinase (Mus musculus, UniProt P26450)", "T2 construct": "endogenous in cells; host or cells: Balb/3T3 cells (PI 3-kinase); pp60c-src/mT from baculovirus-infected Sf9 cells", "T2 sequence (P26450 whole entry)": "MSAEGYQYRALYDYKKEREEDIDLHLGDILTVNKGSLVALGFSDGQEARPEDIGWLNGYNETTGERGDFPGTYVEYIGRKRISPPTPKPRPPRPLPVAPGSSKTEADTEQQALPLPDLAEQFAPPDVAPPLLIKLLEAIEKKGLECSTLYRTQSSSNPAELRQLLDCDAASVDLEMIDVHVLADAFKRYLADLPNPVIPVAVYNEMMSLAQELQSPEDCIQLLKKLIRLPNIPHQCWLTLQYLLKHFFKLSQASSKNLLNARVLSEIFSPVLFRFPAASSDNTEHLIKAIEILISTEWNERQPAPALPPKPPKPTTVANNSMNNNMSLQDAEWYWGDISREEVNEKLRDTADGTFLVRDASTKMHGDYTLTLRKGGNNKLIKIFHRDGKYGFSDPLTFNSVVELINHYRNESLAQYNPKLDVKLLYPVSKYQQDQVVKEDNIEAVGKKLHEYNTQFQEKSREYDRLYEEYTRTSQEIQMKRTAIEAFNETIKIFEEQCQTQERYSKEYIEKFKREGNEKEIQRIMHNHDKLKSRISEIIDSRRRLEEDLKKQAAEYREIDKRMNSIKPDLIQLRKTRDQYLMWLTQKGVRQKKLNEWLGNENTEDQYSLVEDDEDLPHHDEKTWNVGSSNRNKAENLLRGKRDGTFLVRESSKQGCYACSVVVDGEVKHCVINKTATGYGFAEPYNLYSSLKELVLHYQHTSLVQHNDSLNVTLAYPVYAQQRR", "experiment": "Inhibition of in vitro association of cytosolic PI 3-kinase activity (Balb/3T3 lysate) with immunopurified pp60^c-grc /mT", "assay_type": "biochemical", "conditions": "absence of sodium vanadate (active PTPases); peptide at about ID50", "text": "Inhibition of the in vitro Association of PI 3-Kinase Activity With Immunopurified pp60^c-grc /mT. Baculovirus-expressed pp60^c-grc /mT complex was immunopurified from infection Sf9 insect cell (Piwnica-Worms et al., 1990, J. Virol. 64:61-68) lysates as described (Auger et al., 1990, 1992, J. BioL Chem. 267:5408-5415). PI 3-kinase activity was obtained directly from crude Balb/3T3 cell lysates as follows. After washing confluent 10 cm dishes with phosphate-buffered saline, Balb/3T3 cells were treated with lysis buffer (137 mM NaCI, 20 mM Hepes, 1 mM MgCl2, 1 mM CaCl2, 10% glycerol, 1% Nonidet P-40, and 1 μg/ml each of leupeptin, pepstatin A and aprotinin, pH 7.25) in the presence or absence of 0.15 mM sodium vanadate. Following a 10 min incubation with lysis buffer, cells were scrape-harvested and particulate debris was removed from the lysates by centrifugation at 12,000×g for 5 min. at 4° C. Varying concentrations of peptides were added directly to the lysates and incubated at 4° C. for 30 min.\nLysate-peptide mixtures were combined with protein A-Sepharose beads containing immunoprecipitated pp60^c-grc /mT complexes. After washing, the beads were used to catalyze phosphatidylinositol phosphorylation as described (Whitman et al., 1985, Nature 315:239-242; Auger et al., 1989, Cell 57:167-175, 1990, Methods in Inositide Res. pp. 159-166). […]"}, "[3]": {"target": "T3, p85 SH2 domains (SH2/GST fusion protein) (Homo sapiens, UniProt P27986)", "T3 construct": "GST", "T3 sequence (P27986 333-428 limits assumed)": "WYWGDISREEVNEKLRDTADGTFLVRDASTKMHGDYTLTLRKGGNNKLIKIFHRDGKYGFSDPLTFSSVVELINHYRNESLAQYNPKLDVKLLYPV", "experiment": "Biospecific interaction analysis of binding to p85 SH2 domains", "conditions": "steady-state extrapolation, Scatchard-like analysis", "experimental": "Therefore, mT-pY315 binding to p85 SH2 domains was analyzed using biospecific interaction analysis as previously described to obtain a more accurate estimate for KD. Series of data were obtained during real-time binding experiments with different concentrations of SH2/GST fusion protein (data not shown)."}, "[4]": {"system": "SH2 domains of P13-kinase P85", "experiment": "SH2 domain binding of GXVPML analog peptides (FIG. 2)", "conditions": "peptide GXVPML, X varied", "text": "as §1"}, "[5]": {"target": "T2, association between pp60^c-grc /mT and PI 3-kinase", "conditions": "presence of vanadate; Auger et al., 1992; cited from earlier work"}, "[6]": {"system": "association of PtdIns 3-kinase with mT/pp60^c-src complex", "experiment": "Peptide competition of PtdIns 3-kinase association with immunopurified mT/pp60^c-src", "assay_type": "biochemical", "conditions": "peptide pre-incubated with whole cell lysates", "experimental": "(§2) In vitro association of phosphatidylinositol 3-kinase with immunopurified mT/pp60^c-src was assayed as follows. Washed mT/pp60^c-src immune complexes were incubated with purified PtdIns 3-kinase in 750 μl to 1 ml of standard lysis buffer (see above) at 4° C. on a platform rocker. The typical incubation was for 2-3 hours after which the complexes were collected by a brief centrifugation and washed twice with 1% […], twice with 0.5M LiCl in 0.1M Tris-HCl, and twice with TNE.\n(§3) Mammalian whole cell lysates were prepared from confluent 10 cm cell culture plates. The monolayer was washed once with 4° C. PBS and lysed in 1.0 ml of standard lysis buffer. After 10 minutes of incubation on a rocker platform at 4° C., the cells were scrape harvested and lysates cleared by centrifugation at 12,000×g for 5 minutes at 4° C. Lysates were used immediately for association experiments with the immunopurified mT/pp60^c-src complex.\n(§4) Phosphatidylinositol kinase assays and protein kinase assays were performed as follows. Phosphatidylinositol kinase assays were performed directly on the immune complex as described, Whitman et al., 1985, supra; Auger et al., 1989, supra. Sonicated phospholipids were added to the washed beads and the reaction was initiated with the addition of 50 μM ATP, 5-25 μCi [γ^32 P]ATP (3000/Ci/mmole), 5 mM MgCl2 in 20 mM HEPES (pH 7.5). Reactions were incubated for 5 minutes at room temperature. The 50 μl reactions were stopped by the addition of 80 μl of 1M HCl and 1 μl of 500 mM EDTA. The lipids were extracted with 160 μl of methanol:chloroform (1:1) and the organic layer was collected for analysis.\n(§5) The major site of tyrosine phosphorylation on mT by pp60^c-src is tyrosine 315. […]\n(§6) Proteins that were prevented from associating with the mT/pp60^c-src complex by the phosphorylated peptide were also determined. […]"}, "[7]": {"target": "T4, association of PtdIns 3-kinase with mT/pp60^c-src complex (Rattus norvegicus, UniProt Q63787)", "T4 construct": "from tissue; host or cells: rat liver (PtdIns 3-kinase); mT/pp60c-src complex immunopurified from baculovirus-infected Sf9 cells", "T4 sequence (Q63787 whole entry, one chain of several)": "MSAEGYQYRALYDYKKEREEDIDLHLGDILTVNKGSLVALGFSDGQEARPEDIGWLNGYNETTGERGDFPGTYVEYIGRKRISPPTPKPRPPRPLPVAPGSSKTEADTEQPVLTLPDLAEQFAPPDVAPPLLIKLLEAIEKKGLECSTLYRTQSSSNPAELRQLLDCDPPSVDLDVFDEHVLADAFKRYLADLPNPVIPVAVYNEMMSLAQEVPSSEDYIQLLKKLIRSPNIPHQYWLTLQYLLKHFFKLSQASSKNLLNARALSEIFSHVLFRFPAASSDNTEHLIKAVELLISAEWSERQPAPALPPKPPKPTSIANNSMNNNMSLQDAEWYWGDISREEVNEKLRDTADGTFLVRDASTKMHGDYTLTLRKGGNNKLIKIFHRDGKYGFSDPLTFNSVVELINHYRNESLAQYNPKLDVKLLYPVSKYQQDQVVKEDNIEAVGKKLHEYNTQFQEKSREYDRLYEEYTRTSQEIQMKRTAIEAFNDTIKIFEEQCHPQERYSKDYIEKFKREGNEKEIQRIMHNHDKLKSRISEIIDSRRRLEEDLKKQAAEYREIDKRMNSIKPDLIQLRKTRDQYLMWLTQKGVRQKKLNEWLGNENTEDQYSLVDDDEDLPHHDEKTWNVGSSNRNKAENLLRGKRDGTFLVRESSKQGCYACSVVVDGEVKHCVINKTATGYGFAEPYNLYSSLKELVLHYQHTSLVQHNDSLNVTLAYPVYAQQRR", "experiment": "Peptide competition of PtdIns 3-kinase association with immunopurified mT/pp60^c-src", "assay_type": "biochemical", "conditions": "Tran^35 S-labelled Rat-1 whole cell lysates, gel electrophoresis", "experimental": "as §2, §3, §4, §5, §6"}}, "note": "Non-standard residues stand in square brackets, D forms with d. Residues, ends and D or L forms follow the SMILES beside them. No end group written: not given here. Pmp = N[C@@H](Cc1ccc(CP(=O)(O)O)cc1)C(=O)O; pY = N[C@@H](Cc1ccc(OP(=O)(O)O)cc1)C(=O)O", "data": [{"compound": "CC[C@H](C)[C@H](NC(=O)[C@H](CCC(=O)O)NC(=O)[C@H](CCC(=O)O)NC(=O)[C@H](Cc1ccc(OP(=O)(O)O)cc1)NC(=O)[C@H](CCC(N)=O)NC(C)=O)C(=O)N1CCC[C@H]1C(N)=O", "note": "[QXEEIP (pTyr)] (Ac-Q[pY]EEIP-NH2)", "values": [{"measurement": "IC50", "setting": "SH2 domain of Src", "result": "5.7 ± 0.7", "unit": "µM"}]}, {"compound": "N[C@@H](Cc1ccc(OP(=O)(O)O)cc1)C(=O)O", "note": "[phosphotyrosine, reference compound]", "values": [{"measurement": "Km", "setting": "Rat PTPase 1B; apparent Km as substrate", "result": "> 2000", "unit": "µM"}, {"measurement": "Km", "setting": "Rat PTPase 1B; apparent Km, phosphotyrosine and pY-peptides as substrates", "result": "> 2000", "unit": "µM"}, {"measurement": "side chain pK3", "setting": "[1]", "result": 5.7}]}, {"compound": "CSCC[C@H](NC(=O)[C@@H]1CCCN1C(=O)[C@H](CCSC)NC(=O)[C@H](Cc1ccc(OP(=O)(O)O)cc1)NC(=O)[C@H](CCC(=O)O)NC(=O)[C@H](CCC(=O)O)NC(=O)[C@@H](N)CCC(=O)O)C(=O)N[C@@H](CCC(=O)O)C(=O)N[C@@H](CC(=O)O)C(=O)N[C@@H](CC(C)C)C(=O)N[C@@H](Cc1ccc(O)cc1)C(=O)O", "note": "[mT-pY315, EEEpYMPMEDLY] (H-EEE[pY]MPMEDLY-OH)", "values": [{"measurement": "inhibition of association between pp60^c-grc /mT and PI 3-kinase", "setting": "[2]", "result": "obliterated in the absence of vanadate"}, {"measurement": "estimated KD", "setting": "[3]", "result": 0.01, "unit": "µM"}]}, {"compound": "GXVPML (Pmp): peptide GXVPML (SEQ ID NO: 45) with X = Pmp (G[Pmp]VPML)", "values": [{"measurement": "ED50", "setting": "[4]", "result": "1.0 ± 0.1", "unit": "µM"}]}, {"compound": "RENEYMPMAPQIH [unphosphorylated peptide, unphosphorylated version of the hamster mT peptide]", "values": [{"measurement": "activity on association between pp60^c-grc /mT and PI 3-kinase", "setting": "[5]", "result": "no detectable activity"}, {"measurement": "effect on association of PtdIns 3-kinase with mT/pp60^c-src", "setting": "[6]; listed as non-phosphorylated peptide", "result": "had no effect on the association"}, {"measurement": "effect on association of PtdIns 3-kinase with mT/pp60^c-src", "setting": "[6]; listed as unphosphorylated version of the peptide", "result": "did not affect the association"}, {"measurement": "effect on association of labelled proteins (110 kDa doublet, 85 kDa) with mT/pp60^c-src", "setting": "[7]", "result": "did not affect this association"}]}]}
